{"source": "patent US7329680B2", "about": "“Heterocycle substituted carboxylic acids” (The Institute for Pharmaceutical Discovery, LLC, priority 2003, dated 2008)"}
{"smiles": "O=C(O)[C@@H]1CSC(c2ccc(-c3ccc(-n4ccc5ccccc54)cc3)cc2)N1", "note": "(stereo in doubt) [Example 27, 2-(4′-Indol-1-yl-biphen-4-yl)thiazolidine-4-carboxylic acid]", "melting point": "135 to 137 °C (dec.)"}
{"smiles": "O=C(O)C(=O)Nc1cc(-c2ccc(-c3cccc4c3oc3ccccc34)cc2)cn(Cc2ccccc2)c1=O", "note": "[Example 4, N-[1-Benzyl-5-(4-dibenzofuran-4-yl-phenyl)-2-oxo-1,2-dihydro-pyridin-3-yl]-oxalamic acid]", "melting point": "220 to 223 °C"}
{"smiles": "O=C(O)[C@@H]1CSC(c2ccc(-c3ccc(-c4c(Cc5ccccc5)oc5ccccc45)cc3)cc2)N1", "note": "(mixture of isomers) [Example 38, (2RS,4R)-2-[4′-(2-Benzylbenzofuran-3-yl)biphen-4-yl]thiazolidine-4-carboxylic acid]", "melting point": "148 °C (dec.)"}
{"smiles": "O=C(O)CCNc1cc(-c2ccc(-c3cccc4c3oc3ccccc34)cc2)nc(-c2ccccc2)n1", "note": "[Example 46, 3-[2-phenyl-6-(4-dibenzofuran-4-yl-phenyl)-pyrimidin-4-ylamino]-propionic acid]", "melting point": "210 °C (dec.)"}
{"smiles": "O=C(O)CCNc1cc(-c2ccc(-c3cccc4c3oc3ccccc34)cc2)nc(Cc2ccccc2)n1", "note": "[Example 45, 3-[2-Benzyl-6-(4-dibenzofuran-4-yl-phenyl)-pyrimidin-4-ylamino]-propionic acid]", "melting point": "205 °C (dec.)"}
{"smiles": "CCc1ccc(-c2sc(NC(=O)c3ccc(S(=O)(=O)N4CCCC4C(=O)O)cc3)nc2-c2ccc(Cl)cc2)cc1", "note": "(stereo not drawn) [Example 5, 1-{4-[4-(4-Chloro-phenyl)-5-(4-ethyl-phenyl)-thiazol-2-ylcarbamoyl]-benzenesulfonyl}-pyrrolidine-2-carboxylic acid]", "melting point": "289 to 292 °C"}
